# Data from patent publication US7985745B2, “Method for pain treatment” (Abbott Laboratories, priority 2006, dated 2011).
# Legend:
# [1] = target: T1, histamine H4 receptor (Homo sapiens, UniProt Q9H3N8); experiment: FLIPR Ca2+ assay in HEK-293 cells stably expressing histamine H4 receptor and Gαqi5; assay type: cell-based; settings: Kb for antagonists and inverse agonists, EC50 for partial agonists; block of histamine-induced Ca2+ increase
# T1 construct: expressed in transfected cells; host or cells: HEK-293 cells, transient transfection with pCINeo vector; membranes
# Excerpt: Histamine H4 receptors from mammalian species have been cloned. Methods to clone, express, and assess the potency and functional activity of such cloned genes are well known to those skilled in the art of molecular biology. […] Before testing, cells are loaded with a Ca^+2 sensitive fluorescent dye, in this case Fluo-4. In the case of partial agonist or agonist ligands, addition of compound to the cells leads to the increase in intracellular Ca^+2 which is detected by FLIPR (Fluorescence Imaging Plate Reader; Molecular Devices, Sunnyvale, Calif.) technology. […] The fluorescence intensities measured before addition of the test compound are subtracted from the fluorescence intensities at later time points. Peak response values determined at each concentration of ligand are expressed as a percentage of the response obtained with the full agonist histamine. Concentration versus response data are analyzed to obtain compound potency as Kb values for antagonists and inverse agonists and as EC50 values for partial agonists.
# [2] = target: T1, histamine H4 receptor; experiment: 3H-histamine competition binding assay, membranes of transfected HEK-293 cells; settings: displacement of [3H]-histamine, 25° C., 1 h; read-out: Potency in Competition Binding Assay
# Experimental: In this assay, membranes were prepared from HEK-293 cells transiently transfected with the pCINeo expression vector harboring the histamine H4 receptor by homogenization of the cells on ice in TE buffer (50 mM Tris-HCl buffer, pH 7.4, containing 5 mM EDTA), 1 mM benzamidine, 2 μg/ml aprotinin, 1 μg/ml leupeptin, and 1 μg/ml pepstatin. The homogenate was centrifuged at 40,000 g for 20 minutes at 4° C. This step was repeated, and the resulting pellet was resuspended in TE buffer. Aliquots were frozen at −70° C. until needed. On the day of assay, membranes were thawed and diluted with TE buffer. Competition radioligand binding assays were performed with increasing concentrations of test compound in the presence of [^3H]-histamine incubated at 25° C. for 1 h in a total volume of 0.5 ml of 50 mM Tris, 5 mM EDTA, pH 7.4. All binding reactions were terminated by filtration under vacuum onto polyethylenimine (0.3%) presoaked Unifilters (PerkinElmer Life Sciences) or Whatman GF/B filters (Whatman, Clifton, N.J.) followed by three brief washes with 4 ml of ice-cold TE buffer. Bound radiolabel was determined by liquid scintillation counting. For all of the radioligand competition binding assays, IC50 values and Hill slopes were determined by Hill transformation of the data and Ki values were determined by the Cheng-Prusoff equation.
# [3] = tested on: neuropathic pain; experiment: Bennett model: chronic constriction injury of sciatic nerve, mechanical stimulus; assay type: in vivo, rat
# Excerpt: To prepare animals for the model, an incision of about 1.5 cm was made about 0.5 cm below the rat pelvis. The biceps femoris and the gluteous superficialis (right side) were separated and the sciatic nerve exposed, isolated, and four loose ligatures (5-0 chromic [NT]) with 1 mm spacing were placed around it. The rats were allowed to recover and then placed in a cage with soft bedding for 10 days before assessment of pain response to mechanical stimulus by the method described above for the Chung model.
# [4] = tested on: thermal hyperalgesia; experiment: Complete Freund's adjuvant-induced thermal hyperalgesia; assay type: in vivo, rat; settings: 30 minutes before testing, 48 hours after CFA, thermal stimulus
# Experimental: To assess the effectiveness of representative compounds of the invention against hyperalgesia, animals were tested in an acute model of adjuvant-induced thermal hyperalgesia (see for example, Honore, et al. Behavioural Brain Research 167 (2006) 355-364; Carroll, et al. US Patent application US 2006/0025614A 1). To prepare animals for the model, a solution of Complete Freund's adjuvant (150 microliters of a 50% aqueous solution, Sigma Chemical Company, St. Louis, Mo.) was injected into the plantar surface of test paw of the animal (rat). Rats so injected develop a hyperalgesia to thermal stimulation which is assessed 48 hours after injection of the Complete Freund's adjuvant using a commercially available paw thermal stimulator (UARDG, Dept. of Anesthesiology, Univ. California at San Diego, La Jolla, Calif.). For testing, rats were placed individually in a so-called ‘hot box’ (i.e. Plexiglass cubicles mounted on a glass surface) maintained at 30° C., and allowed a 30 minute habituation period. A thermal stimulus, in the form of radiant heat emitted from a focused projection bulb, was then applied to the plantar surface of each hind paw. The stimulus current was maintained (e.g. at 4.5 Amp) and the time of exposure set to limit the extent of possible tissue damage (e.g. maximum of 20 seconds exposure to thermal heating from the projection bulb). The time (in seconds) for the withdrawal of the paw that was injected with the Complete Freund's adjuvant (CFA) and subjected to the thermal stimulus was recorded, and this was compared to the time (in seconds) for withdrawal of the uninjected paw subjected to the same thermal stimulus. […] To test the effect of a compound on the hyperalgesia, the test compound is dissolved in a vehicle (e.g. water or saline) and administered by i.p. (intraperitoneal) injection 30 minutes before the testing of the animal's response to the thermal stimulus to the paws. The antihyperalgesic activity of the compound in blocking the pain is shown by an increase in the time to withdraw the CFA-injected paw subjected to thermal stimulus. Experiments are done with single-dose and escalating-dosages of the test compound, and dose response curves constructed to determine ED50 values.
# T1 sequence (Q9H3N8 whole entry, species assumed): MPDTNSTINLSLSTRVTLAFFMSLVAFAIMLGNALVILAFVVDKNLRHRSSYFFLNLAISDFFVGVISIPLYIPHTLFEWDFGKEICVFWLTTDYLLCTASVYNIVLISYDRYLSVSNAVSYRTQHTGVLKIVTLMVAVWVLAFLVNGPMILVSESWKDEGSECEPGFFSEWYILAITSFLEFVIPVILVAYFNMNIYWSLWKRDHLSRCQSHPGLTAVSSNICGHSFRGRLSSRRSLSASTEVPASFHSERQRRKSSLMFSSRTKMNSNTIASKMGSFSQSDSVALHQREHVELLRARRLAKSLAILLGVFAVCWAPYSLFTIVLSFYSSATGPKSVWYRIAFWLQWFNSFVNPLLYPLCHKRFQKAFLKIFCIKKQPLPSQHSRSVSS
Structure (SMILES),Potency in the FLIPR assay [1],Ki [2],MPE ([3]; 100 micromole/kg i.p.),MPE ([3]; 300 micromole/kg i.p.),MPE ([4]; 30 micromole/kg i.p.),MPE ([4]; 100 micromole/kg i.p.),MPE ([3]; 250 micromole/kg i.p.),MPE ([3]; 500 micromole/kg i.p.),MPE ([4]; 300 micromole/kg i.p.)
"CN1CCN(c2cc(-c3ccc(C#N)cc3)nc(N)n2)CC1.O=C(O)/C=C\C(=O)O [Example 1, 4-(2-Amino-6-(4-methylpiperazin-1-yl)pyrimidin-4-yl)benzonitrile, maleate]",58 nM,35 nM,18%,63%,62%,88%,–,–,–
"CN1CCN(C(=O)c2cc3cc(Cl)ccc3[nH]2)CC1 [Example 3, reference compound]",–,–,–,–,27%,–,32%,73%,81%
"CNC1CN(c2nc(N)nc3c2CCCc2ccccc2-3)C1 [Example 6, 4-(3-Methylamino-azetidin-1-yl)-6,7-dihydro-5H-benzo[6,7]cyclohepta[1,2-d]pyrimidin-2-ylamine]",9 nM,11 nM,–,–,–,–,–,–,–
